Experimental findings from patent publication US20150065345A1, “1,2,4 - TRIAZOLE DERIVATIVES AS HERBICIDALS” (SYNGENTA LIMITED, priority 2012, published 2015) are described below.

Common to all, as to type: in vivo
Test [1] concerns IPOHE. Kind of test: Glasshouse herbicide test, post-emergence. The note with it: 1000 g/h, evaluated after 13 days, five point scale. How it is done:
[The procedure below names another species; the source lists this species under the same test.] (§1) Seeds of a variety of test species are sown in standard soil in pots Alopecurus myosuroides (ALOMY), Amaranthus retoflexus (AMARE), Setaria faberi (SETFA), Echinochloa crus-galli (ECHCG), Lolium perenne (LOLPE), Solanum nigrum (SOLNI), Stellaria media (STEME) and Digitaria sanguinalis (DIGSA). After cultivation for one day (pre-emergence) or after 8 days cultivation (post-emergence) under controlled conditions in a glasshouse (at 24/16° C., day/night; 14 hours light; 65% humidity), the plants are sprayed with an aqueous spray solution derived from the formulation of the technical active ingredient in acetone/water (50:50) solution containing 0.5% Tween 20 (polyoxyethelyene sorbitan monolaurate, CAS RN 9005-64-5). Compounds are applied at 1000 g/h. The test plants are then grown in a glasshouse under controlled conditions in a glasshouse (at 24/16° C., day/night; 14 hours light; 65% humidity) and watered twice daily. After 13 days for pre and post-emergence, the test is evaluated for the percentage damage caused to the plant. The biological activities are shown in the following table on a five point scale (5=80-100%; 4=60-79%; 3=40-59%; 2=20-39%; 1=0-19%).

Test [2] has as its system Amaranthus retoflexus (AMARE). The test can be described thus: Glasshouse herbicide test, post-emergence. The note with it: 1000 g/h, evaluated after 13 days, five point scale, second table. How it is done: as §1
The subject of test [3] is Solanum nigrum (SOLNI). Kind of test: Glasshouse herbicide test, post-emergence. The note with it: 1000 g/h, evaluated after 13 days, five point scale. The protocol: as §1
Test [4] concerns Setaria faberi (SETFA). The test can be described thus: Glasshouse herbicide test, post-emergence. The note with it: 1000 g/h, evaluated after 13 days, five point scale. The protocol:
as §1

Test [5] concerns Echinochloa crus-galli (ECHCG). The test can be described thus: Glasshouse herbicide test, post-emergence. The note with it: 1000 g/h, evaluated after 13 days, five point scale. The protocol: as §1
Test [6] relates to Alopecurus myosuroides (ALOMY). The test can be described thus: Glasshouse herbicide test, post-emergence. The note with it: 1000 g/h, evaluated after 13 days, five point scale. How it is done: as §1
Test [7] relates to IPOHE. Kind of test: Glasshouse herbicide test, pre-emergence. The note with it: 1000 g/h, evaluated after 13 days, five point scale. How it is done:
[The procedure below names another species; the source lists this species under the same test.] as §1

Test [8] deals with Amaranthus retoflexus (AMARE). The test can be described thus: Glasshouse herbicide test, pre-emergence. The note with it: 1000 g/h, evaluated after 13 days, five point scale, second table. The protocol:
as §1

Test [9] has as its system Solanum nigrum (SOLNI). The test can be described thus: Glasshouse herbicide test, pre-emergence. The note with it: 1000 g/h, evaluated after 13 days, five point scale. How it is done: as §1
In test [10] the test system is Setaria faberi (SETFA). The test can be described thus: Glasshouse herbicide test, pre-emergence. The note with it: 1000 g/h, evaluated after 13 days, five point scale. The protocol:
as §1

The subject of test [11] is Echinochloa crus-galli (ECHCG). The test can be described thus: Glasshouse herbicide test, pre-emergence. The note with it: 1000 g/h, evaluated after 13 days, five point scale. How it is done: as §1
Test [12] has as its system Alopecurus myosuroides (ALOMY). Kind of test: Glasshouse herbicide test, pre-emergence. The note with it: 1000 g/h, evaluated after 13 days, five point scale. How it is done: as §1

For `CCc1nnc(NC(=O)c2ccc(S(C)(=O)=O)c(COCC(F)(F)F)c2Cl)n1C` [Compound 1.013], the “percentage damage caused to the plant, IPOHE, POST Application” value in the test on IPOHE [1] was 1 (1=0-19%). For the same compound, in [2], the “percentage damage caused to the plant, AMARE, POST Application” value was 1 (1=0-19%). Moreover, the “percentage damage caused to the plant, SOLNI, POST Application” value in the test with Solanum nigrum (SOLNI) [3] is 2 (2=20-39%). In addition, in the test on Setaria faberi (SETFA) [4], the “percentage damage caused to the plant, SETFA, POST Application” value is recorded as 1 (1=0-19%). Besides, the “percentage damage caused to the plant, ECHCG, POST Application” value in test [5] is given as 1 (1=0-19%). For the same compound, in test [6], the “percentage damage caused to the plant, ALOMY, POST Application” value is listed as 2 (2=20-39%). Further, the “percentage damage caused to the plant, IPOHE, PRE Application” value with IPOHE [7] was 1 (1=0-19%). In test [8], the “percentage damage caused to the plant, AMARE, PRE Application” value was 1 (1=0-19%). Further, the “percentage damage caused to the plant, SOLNI, PRE Application” value in the test on Solanum nigrum (SOLNI) [9] is 1 (1=0-19%). Moreover, the “percentage damage caused to the plant, SETFA, PRE Application” value in the test with Setaria faberi (SETFA) [10] is listed as 1 (1=0-19%). Besides, the “percentage damage caused to the plant, ECHCG, PRE Application” value in test [11] is 1 (1=0-19%). Moreover, the “percentage damage caused to the plant, ALOMY, PRE Application” value in test [12] is 1 (1=0-19%).
For `CCn1cnnc1NC(=O)c1ccc(S(C)(=O)=O)c(COCC(F)(F)F)c1Cl` [Compound 1.014], the “percentage damage caused to the plant, IPOHE, POST Application” value in the test with IPOHE [1] is listed as 5 (5=80-100%). Moreover, the “percentage damage caused to the plant, AMARE, POST Application” value in test [2] is listed as 5 (5=80-100%). For the same compound, in the test with Solanum nigrum (SOLNI) [3], the “percentage damage caused to the plant, SOLNI, POST Application” value is listed as 5 (5=80-100%). For the same compound, the “percentage damage caused to the plant, SETFA, POST Application” value in the test with Setaria faberi (SETFA) [4] is 5 (5=80-100%). Further, the “percentage damage caused to the plant, ECHCG, POST Application” value in [5] is given as 5 (5=80-100%). Besides, the “percentage damage caused to the plant, ALOMY, POST Application” value in test [6] is recorded as 5 (5=80-100%). In addition, the “percentage damage caused to the plant, IPOHE, PRE Application” value in the test on IPOHE [7] is on record as 5 (5=80-100%). Besides, the “percentage damage caused to the plant, AMARE, PRE Application” value in test [8] is on record as 5 (5=80-100%). In addition, the “percentage damage caused to the plant, SOLNI, PRE Application” value with Solanum nigrum (SOLNI) [9] is given as 5 (5=80-100%). For the same compound, the “percentage damage caused to the plant, SETFA, PRE Application” value with Setaria faberi (SETFA) [10] is given as 5 (5=80-100%). Besides, the “percentage damage caused to the plant, ECHCG, PRE Application” value in test [11] is 5 (5=80-100%). In test [12], the “percentage damage caused to the plant, ALOMY, PRE Application” value was 5 (5=80-100%).
With `CCn1c(C)nnc1NC(=O)c1ccc(S(C)(=O)=O)c(COCC(F)(F)F)c1Cl` [Compound 1.015], in the test with IPOHE [1], the “percentage damage caused to the plant, IPOHE, POST Application” value was 4 (4=60-79%). Besides, the “percentage damage caused to the plant, AMARE, POST Application” value in test [2] is reported as 4 (4=60-79%). In addition, in the test on Solanum nigrum (SOLNI) [3], the “percentage damage caused to the plant, SOLNI, POST Application” value is given as 4 (4=60-79%). The “percentage damage caused to the plant, SETFA, POST Application” value in the test with Setaria faberi (SETFA) [4] is reported as 1 (1=0-19%). Also, the “percentage damage caused to the plant, ECHCG, POST Application” value in test [5] is reported as 2 (2=20-39%). Moreover, the “percentage damage caused to the plant, ALOMY, POST Application” value in test [6] was 2 (2=20-39%). The “percentage damage caused to the plant, IPOHE, PRE Application” value with IPOHE [7] is given as 2 (2=20-39%). For the same compound, the “percentage damage caused to the plant, AMARE, PRE Application” value in test [8] was 4 (4=60-79%). Moreover, the “percentage damage caused to the plant, SOLNI, PRE Application” value with Solanum nigrum (SOLNI) [9] is on record as 4 (4=60-79%). In the test on Setaria faberi (SETFA) [10], the “percentage damage caused to the plant, SETFA, PRE Application” value is reported as 1 (1=0-19%). Moreover, the “percentage damage caused to the plant, ECHCG, PRE Application” value in [11] is 1 (1=0-19%). The “percentage damage caused to the plant, ALOMY, PRE Application” value in [12] is listed as 1 (1=0-19%).
Turning to `Cn1cnnc1NC(=O)c1cc(F)c(F)cc1[N+](=O)[O-]` [Compound 2.003], the “percentage damage caused to the plant, IPOHE, POST Application” value in the test on IPOHE [1] is reported as 1 (1=0-19%). The “percentage damage caused to the plant, AMARE, POST Application” value in [2] is reported as 1 (1=0-19%). The “percentage damage caused to the plant, SOLNI, POST Application” value in the test with Solanum nigrum (SOLNI) [3] was 1 (1=0-19%). For the same compound, the “percentage damage caused to the plant, SETFA, POST Application” value with Setaria faberi (SETFA) [4] is reported as 1 (1=0-19%). Besides, the “percentage damage caused to the plant, ECHCG, POST Application” value in test [5] is recorded as 1 (1=0-19%). Besides, the “percentage damage caused to the plant, ALOMY, POST Application” value in test [6] is given as 1 (1=0-19%). Also, in the test with IPOHE [7], the “percentage damage caused to the plant, IPOHE, PRE Application” value was 1 (1=0-19%). Also, the “percentage damage caused to the plant, AMARE, PRE Application” value in test [8] is reported as 1 (1=0-19%). Besides, the “percentage damage caused to the plant, SOLNI, PRE Application” value in the test on Solanum nigrum (SOLNI) [9] is given as 1 (1=0-19%). The “percentage damage caused to the plant, SETFA, PRE Application” value in the test with Setaria faberi (SETFA) [10] was 1 (1=0-19%). For the same compound, the “percentage damage caused to the plant, ECHCG, PRE Application” value in [11] is reported as 1 (1=0-19%). Moreover, the “percentage damage caused to the plant, ALOMY, PRE Application” value in test [12] is given as 1 (1=0-19%).
In the case of `Cc1ccc([N+](=O)[O-])c(C(=O)Nc2nncn2C)c1` [Compound 2.005], the “percentage damage caused to the plant, IPOHE, POST Application” value with IPOHE [1] was 4 (4=60-79%). Moreover, the “percentage damage caused to the plant, AMARE, POST Application” value in test [2] is 4 (4=60-79%). Besides, in the test on Solanum nigrum (SOLNI) [3], the “percentage damage caused to the plant, SOLNI, POST Application” value is given as 4 (4=60-79%). Besides, in the test on Setaria faberi (SETFA) [4], the “percentage damage caused to the plant, SETFA, POST Application” value was 1 (1=0-19%). In test [5], the “percentage damage caused to the plant, ECHCG, POST Application” value is 1 (1=0-19%). The “percentage damage caused to the plant, ALOMY, POST Application” value in test [6] is given as 1 (1=0-19%). Also, in the test with IPOHE [7], the “percentage damage caused to the plant, IPOHE, PRE Application” value is given as 3 (3=40-59%). Moreover, the “percentage damage caused to the plant, AMARE, PRE Application” value in [8] is 2 (2=20-39%). In addition, the “percentage damage caused to the plant, SOLNI, PRE Application” value with Solanum nigrum (SOLNI) [9] is on record as 2 (2=20-39%). For the same compound, the “percentage damage caused to the plant, SETFA, PRE Application” value in the test with Setaria faberi (SETFA) [10] was 1 (1=0-19%). In addition, the “percentage damage caused to the plant, ECHCG, PRE Application” value in test [11] was 1 (1=0-19%). Also, in [12], the “percentage damage caused to the plant, ALOMY, PRE Application” value was 1 (1=0-19%).
